The source made the active and inactive calls. The rule behind the calls is not given here.
Legend:
[1] = Growth inhibition of human HBC4 cells after 48 hrs by sulforhodamine B colorimetric assay; type: functional; details: HBC4, 48 h
U-251 = experiment: Growth inhibition of human U251 cells after 48 hrs by sulforhodamine B colorimetric assay; type: functional; details: U-251, 48 h
SF-268 = experiment: Growth inhibition of human SF268 cells after 48 hrs by sulforhodamine B colorimetric assay; type: functional; details: SF-268, 48 h
[2] = Growth inhibition of human SF295 cells after 48 hrs by sulforhodamine B colorimetric assay; type: functional; details: SF-295, 48 h
SNB-75 = experiment: Growth inhibition of human SNB75 cells after 48 hrs by sulforhodamine B colorimetric assay; type: functional; details: SNB-75, 48 h
[3] = Growth inhibition of human SNB78 cells after 48 hrs by sulforhodamine B colorimetric assay; type: functional; details: SNB-78, 48 h
[4] = Growth inhibition of human HCC2998 cells after 48 hrs by sulforhodamine B colorimetric assay; type: functional; details: HCC 2998, 48 h
KM12 = experiment: Growth inhibition of human KM12 cells after 48 hrs by sulforhodamine B colorimetric assay; type: functional; details: KM12, 48 h
HT-29 = experiment: Growth inhibition of human HT-29 cells after 48 hrs by sulforhodamine B colorimetric assay; type: functional; details: HT-29, 48 h
[5] = Growth inhibition of human HCT15 cells after 48 hrs by sulforhodamine B colorimetric assay; type: functional; details: HCT-15, 48 h
[6] = Growth inhibition of human OVCAR5 cells after 48 hrs by sulforhodamine B colorimetric assay; type: functional; details: OVCAR-5, 48 h
SK-OV-3 = experiment: Growth inhibition of human SKOV3 cells after 48 hrs by sulforhodamine B colorimetric assay; type: functional; details: SK-OV-3, 48 h
[7] = Growth inhibition of human RXF631L cells after 48 hrs by sulforhodamine B colorimetric assay; type: functional; details: RXF 631, 48 h
DU-145 = experiment: Growth inhibition of human DU145 cells after 48 hrs by sulforhodamine B colorimetric assay; type: functional; details: DU-145, 48 h
[8] = Toxicity in human NCI-H23 cells xenografted in mouse ip dosed on day 0 and day; type: organism-based; details: in vivo
[9] = Growth inhibition of human BSY1 cells after 48 hrs by sulforhodamine B colorimetric assay; type: functional; details: BSY-1, 48 h
[10] = Growth inhibition of human HBC5 cells after 48 hrs by sulforhodamine B colorimetric assay; type: functional; details: HBC5, 48 h
MCF7 = experiment: Growth inhibition of human MCF7 cells after 48 hrs by sulforhodamine B colorimetric assay; type: functional; details: MCF7, 48 h
MDA-MB-231 = experiment: Growth inhibition of human MDA-MB-231 cells after 48 hrs by sulforhodamine B colorimetric assay; type: functional; details: MDA-MB-231, 48 h
[11] = Growth inhibition of human SF539 cells after 48 hrs by sulforhodamine B colorimetric assay; type: functional; details: SF-539, 48 h
[12] = Growth inhibition of human HCT116 cells after 48 hrs by sulforhodamine B colorimetric assay; type: functional; details: HCT-116, 48 h
NCI-H23 [13] = experiment: Growth inhibition of human NCI-H23 cells after 48 hrs by sulforhodamine B colorimetric assay; type: functional; details: NCI-H23, 48 h
NCI-H226 = experiment: Growth inhibition of human NCI-H226 cells after 48 hrs by sulforhodamine B colorimetric assay; type: functional; details: NCI-H226, 48 h
NCI-H522 = experiment: Growth inhibition of human NCI-H522 cells after 48 hrs by sulforhodamine B colorimetric assay; type: functional; details: NCI-H522, 48 h
NCI-H460 = experiment: Growth inhibition of human NCI-H460 cells after 48 hrs by sulforhodamine B colorimetric assay; type: functional; details: NCI-H460, 48 h
A549 = experiment: Growth inhibition of human A549 cells after 48 hrs by sulforhodamine B colorimetric assay; type: functional; details: A549, 48 h
[14] = Growth inhibition of human DMS273 cells after 48 hrs by sulforhodamine B colorimetric assay; type: functional; details: DMS-273, 48 h
[15] = Growth inhibition of human DMS114 cells after 48 hrs by sulforhodamine B colorimetric assay; type: functional; details: DMS-114, 48 h
[16] = Growth inhibition of human LOXIMVI cells after 48 hrs by sulforhodamine B colorimetric assay; type: functional; details: LOX IMVI
[17] = Growth inhibition of human OVCAR3 cells after 48 hrs by sulforhodamine B colorimetric assay; type: functional; details: OVCAR-3, 48 h
[18] = Growth inhibition of human OVCAR4 cells after 48 hrs by sulforhodamine B colorimetric assay; type: functional; details: OVCAR-4, 48 h
[19] = Growth inhibition of human OVCAR8 cells after 48 hrs by sulforhodamine B colorimetric assay; type: functional; details: OVCAR-8, 48 h
ACHN = experiment: Growth inhibition of human ACHN cells after 48 hrs by sulforhodamine B colorimetric assay; type: functional
St-4 = experiment: Growth inhibition of human St-4 cells after 48 hrs by sulforhodamine B colorimetric assay; type: functional; details: St-4, 48 h
[20] = Growth inhibition of human MKN1 cells after 48 hrs by sulforhodamine B colorimetric assay; type: functional; details: MKN-1, 48 h
[21] = Growth inhibition of human MKN7 cells after 48 hrs by sulforhodamine B colorimetric assay; type: functional; details: MKN-7, 48 h
[22] = Growth inhibition of human MKN28 cells after 48 hrs by sulforhodamine B colorimetric assay; type: functional; details: MKN-28, 48 h
[23] = Growth inhibition of human MKN45 cells after 48 hrs by sulforhodamine B colorimetric assay; type: functional; details: MKN-45, 48 h
[24] = Growth inhibition of human MKN74 cells after 48 hrs by sulforhodamine B colorimetric assay; type: functional; details: MKN-74, 48 h
[25] = Growth inhibition of human PC3 cells after 48 hrs by sulforhodamine B colorimetric assay; type: functional; details: PC-3, 48 h
NCI-H23 [26] = experiment: Antitumor activity against human NCI-H23 cells xenografted in mouse assessed as inhibition of tumor growth on day 16 at 100 mg/kg, ip on day 0 and day 6; type: functional, organism-based; set-up: dose 100 mg/kg
NCI-H23 [27] = experiment: Antitumor activity against human NCI-H23 cells xenografted in mouse assessed as average tumor size on day 16 at 100 mg/kg, ip on day 0 and day 6 relative to control mouse; type: functional; details: route intraperitoneal

CCCCCCCCCCCC[C@@H](O)[C@H]1CC[C@H]([C@H](O)CCCCCCCCCCNC(=O)c2ccnn2C)O1
GI50 [1]: > 100 µM
GI50 (U-251): > 100 µM
GI50 (SF-268): > 100 µM
GI50 [2]: 10 µM
GI50 (SNB-75): 50.1 µM
GI50 [3]: > 100 µM
GI50 [4]: > 100 µM
GI50 (KM12): > 100 µM
GI50 (HT-29): > 100 µM
GI50 [5]: > 100 µM
GI50 [6]: > 100 µM
GI50 (SK-OV-3): > 100 µM
GI50 [7]: > 100 µM
GI50 (DU-145): > 100 µM
MTD [8]: 5 mg/kg

CCCCCCCCCCCC[C@@H](O)[C@H]1CC[C@H]([C@H](O)CCCCCCCCCCNC(=O)c2ccoc2)O1
GI50 [1]: > 100 µM
GI50 [9]: 2.19 µM
GI50 [10]: > 100 µM
GI50 (MCF7): 26.9 µM
GI50 (MDA-MB-231): > 100 µM
GI50 (U-251): > 100 µM
GI50 (SF-268): > 100 µM
GI50 [2]: > 100 µM
GI50 [11]: > 100 µM
GI50 (SNB-75): > 100 µM
GI50 [3]: > 100 µM
GI50 [4]: 79.4 µM
GI50 (KM12): > 100 µM
GI50 (HT-29): > 100 µM
GI50 [5]: > 100 µM
GI50 [12]: 3.47 µM
GI50 (NCI-H23 [13]): 3.02 µM
GI50 (NCI-H226): > 100 µM
GI50 (NCI-H522): 10 µM
GI50 (NCI-H460): > 100 µM
GI50 (A549): > 100 µM
GI50 [14]: > 100 µM
GI50 [15]: 0.191 µM
GI50 [16]: 21.9 µM
GI50 [17]: > 100 µM
GI50 [18]: 74.1 µM
GI50 [6]: > 100 µM
GI50 [19]: 66.1 µM
GI50 (SK-OV-3): > 100 µM
GI50 [7]: > 100 µM
GI50 (ACHN): > 100 µM
GI50 (St-4): 97.7 µM
GI50 [20]: > 100 µM
GI50 [21]: 0.372 µM
GI50 [22]: 0.55 µM
GI50 [23]: > 100 µM
GI50 [24]: 21.9 µM
GI50 (DU-145): > 100 µM
GI50 [25]: 52.5 µM

CCCCCCCCCCCC[C@@H](O)[C@H]1CC[C@H]([C@H](O)CCCCCCCCCCNC(=O)c2ccsc2)O1
GI50 [1]: > 100 µM
GI50 [9]: 3.02 µM
GI50 [10]: 2.09 µM
GI50 (MCF7): 2 µM
GI50 (MDA-MB-231): 4.47 µM
GI50 (U-251): > 100 µM
GI50 (SF-268): > 100 µM
GI50 [2]: 1 µM
GI50 [11]: > 100 µM
GI50 (SNB-75): 2.82 µM
GI50 [3]: > 100 µM
GI50 [4]: 2.19 µM
GI50 (KM12): 3.02 µM
GI50 (HT-29): 1.91 µM
GI50 [5]: 38 µM
GI50 [12]: 1.29 µM
GI50 (NCI-H23 [13]): 0.2 µM
GI50 (NCI-H226): 2.4 µM
GI50 (NCI-H522): 1 µM
GI50 (NCI-H460): 4.9 µM
GI50 (A549): > 100 µM
GI50 [14]: 2 µM
GI50 [15]: 0.17 µM
GI50 [16]: 1.51 µM
GI50 [17]: 1.7 µM
GI50 [18]: 1.7 µM
GI50 [6]: 2.69 µM
GI50 [19]: 1.91 µM
GI50 (SK-OV-3): > 100 µM
GI50 [7]: > 100 µM
GI50 (ACHN): 3.89 µM
GI50 (St-4): 1.7 µM
GI50 [20]: 2.29 µM
GI50 [21]: 0.17 µM
GI50 [22]: 0.575 µM
GI50 [23]: 3.72 µM
GI50 [24]: 1.51 µM
GI50 (DU-145): 2.19 µM
GI50 [25]: 1.7 µM
inhibition (NCI-H23 [26]): Active
Activity (NCI-H23 [27]): 16%
